Read-outs that look alike come from different tables or passages of the source.

As usually defined, the IC50 is the concentration that inhibits the measured activity by half.

Series [1] deals with HEK-293 cells. Description: Cell viability, Cell Proliferation Reagent WST-1. It counts as cell-based, human. The note with it: read-out: WST-1 IC50. The protocol:
To exclude the possible cytotoxic effects, all compounds were additionally tested using the ‘Cell Proliferation Reagent WST-1' (Roche Diagnostics). HEK-293 cells were treated with the same concentrations of the various substances and 18 h later WST-1 was added. Readout was conducted using the EnVision Multilabel Reader (PerkinElmer).

For series [2], the system named is CHIKV C21. Description: Single-cycle CHIKV C21 infection, drug 2 h before or 2 h after infection (flow cytometry of capsid; supernatant infectivity on Vero cells). It counts as cell-based, chikungunya virus. In general terms: A flow cytometer gives signals particle by particle.
Series [3] concerns CHIKV. Description: microbe, parasite or virus in culture. It counts as cell-based, chikungunya virus. The note with it: HEK-293 cells pretreated with dilutions of each drug, CHIKV-GFP, 18 h p.i.
For series [4], the system named is HeLa cells. Description: Real-time cell toxicity assay (xCELLigence).
Series [5] concerns CHIKV replicon. Description: CHIKV replicon dual-luciferase assay (genomic and subgenomic vRNA expression). It counts as cell-based, chikungunya virus. The note with it: HeLa cells, inhibitor from 1 h p.i., read 8 h p.i.
The target of series [6] is CLK1 (Homo sapiens, UniProt P49759). Description: CLK1 inhibition by capillary electrophoresis in a microfluidic chip system (LabChip3000). It counts as biochemical.
Chain of CLK1 (P49759 whole entry): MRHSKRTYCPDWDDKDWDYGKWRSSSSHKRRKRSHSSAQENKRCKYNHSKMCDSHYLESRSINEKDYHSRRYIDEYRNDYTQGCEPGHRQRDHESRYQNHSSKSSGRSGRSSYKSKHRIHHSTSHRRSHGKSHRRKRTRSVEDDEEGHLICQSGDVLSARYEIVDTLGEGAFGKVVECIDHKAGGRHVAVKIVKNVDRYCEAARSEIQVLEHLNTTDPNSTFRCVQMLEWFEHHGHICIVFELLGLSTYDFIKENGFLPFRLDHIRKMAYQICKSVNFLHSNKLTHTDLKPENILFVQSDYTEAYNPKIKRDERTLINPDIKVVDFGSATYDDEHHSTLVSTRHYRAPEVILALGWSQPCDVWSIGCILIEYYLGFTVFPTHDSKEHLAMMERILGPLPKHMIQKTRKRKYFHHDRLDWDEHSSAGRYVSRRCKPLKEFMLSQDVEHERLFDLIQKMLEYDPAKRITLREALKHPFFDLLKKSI
Series [7] concerns CHIKV C21. Description: Intradermal CHIKV infection model of neonatal mice.
Series [8] relates to HeLa cells. Description: Cell viability, CellTiter-Glo kit. The note with it: end of the 1 h infection + 7 h treatment experiment. For orientation: ATP-based viability assays read luminescence as a measure of living cells.
In series [9] the test system is CHIKV C21. Description: Quantitative RT-PCR of cell- and supernatant-associated vRNA. The following applies: HeLa; for vRNA synthesis (cell-associated vRNA) / viral release in the supernatants (supernatant-associated vRNA): CHIKV C21 MOI 50 for 1 h, then drug 7 h: cerulenin 50 μM, TOFA 25 μM, pimozide 10 μM, W7 20 μM, tivozanib 5 μM; for vRNA replication, delayed treatment / viral release, delayed treatment: CHIKV-infected, drugs from 6 to 8 h p.i. In kind it is cell-based, chikungunya virus.

[10] abbreviates: HEK-293 cell viability, 18 h, * = treatment induced <50% cell death.
[11] abbreviates: 0.5 mg kg−1 per os daily from day 7, infected at day 9, continued 21 days.

On to KH-CB19, for which the figures for the IC50 in [1] (setting [10]) and in series [3] were 10900 nM and 3360 nM, respectively. The “inhibition of CHIKV infection at early times p.i.” value in [2] (Supplementary Fig. 5a) is reported as “incomplete inhibition”.
Take `COc1ccc(-c2ccccc2)cc1NS(=O)(=O)c1cc(Cl)cc(Cl)c1O` [BMS-303141]: the “effect on cell viability” value in series [4] is “no deleterious effect on cell viability”. In series [5], the “genomic and subgenomic vRNA synthesis” value is “significant and dose-dependent reduction”.
Regarding `COc1ccc2c(c1)[nH]c1c(/C=C/c3ccccc3)nccc12` [AnnH18, (E)-7-methoxy-1-(2-phenylethen-1-yl)-9H-pyrido[3,4-b]indole], the concentration for half-maximal inhibition (IC50) in series [1] (Homo sapiens, HEK293, 18 h) turned out to be 9190 nM; in [6] it was 575 nM; in [3] (Chikungunya virus, HEK293) it was 1020 nM.
For `CCCCCCCCCCC[C@@H](C[C@@H]1OC(=O)[C@H]1CCCCCC)OC(=O)[C@H](CC(C)C)NC=O` [Orlistat], the IC50 turned out to be 8670 nM in [1] (Homo sapiens, HEK293, 18 h) and 820 nM in series [3] (Chikungunya virus, HEK293).
As to `COc1cc2nccc(Oc3ccc(NC(=O)Nc4cc(C)on4)c(Cl)c3)c2cc1OC` [Tivozanib], the 50% inhibitory concentration (IC50) in [1] (Homo sapiens, HEK293, 18 h) was determined as 8340 nM. In addition, in series [7] (setting [11]), the body weight gain entry is given as “positive impact on body weight gain”, the “mortality of CHIKV-infected mice” value is “significant reduction in mortality” and the onset of paralysis result is on record as “protected from the onset of paralysis”. In addition, the “CHIKV viral load in organs” value in series [7] (3 days post infection, 0.5 mg kg−1 per os) is “significantly reduced CHIKV viral load”. Moreover, the cell toxicity result in series [8] is listed as “no detectable cell toxicity”. Moreover, in [9], the “vRNA synthesis (cell-associated vRNA)” value is “significantly reduced vRNA synthesis”; the “viral release in the supernatants (supernatant-associated vRNA)” value is “strongly inhibited viral release”; the “vRNA replication, delayed treatment” value is “only a minor impact on vRNA replication”; the “viral release, delayed treatment” value was “major defect in viral release”. Also, in [3] (Chikungunya virus, HEK293), the IC50 turned out to be 800 nM.
With `OCCN1CCN(CCCN2c3ccccc3Sc3ccc(Cl)cc32)CC1` [Perphenazine], the IC50 came out at 24200 nM in series [1] (Homo sapiens, HEK293, 18 h) and 630 nM in series [3] (Chikungunya virus, HEK293).
For the compound `CO/C1=C\C(C)=C\[C@@H](C)[C@@H](O)[C@@H](C)C/C(C)=C/C=C/[C@H](OC)[C@@H]([C@@H](C)[C@@H](O)[C@H](C)[C@@]2(O)C[C@@H](O)[C@H](C)[C@@H](C(C)C)O2)OC1=O` [Bafilomycin], the half-maximal inhibitory concentration (IC50) in [1] (setting [10]) is 3 nM; in [3], 0.334 nM. Moreover, the “stage of the viral life cycle affected” value in [2] (single-cycle CHIKV infection, treatment before or after viral entry) is reported as “specifically blocked CHIKV entry”.
Regarding `O=C1Cc2c([nH]c3ccc([N+](=O)[O-])cc23)-c2ccccc2N1` [Alsterpaullone], the half-maximal inhibitory concentration (IC50) in series [1] (Homo sapiens, HEK293, 18 h) is 44400 nM; in series [3] (Chikungunya virus, HEK293), 2 nM.
On to `Cc1ccc(F)c(NC(=O)Nc2ccc(-c3cccc4[nH]nc(N)c34)cc2)c1` [Linifanib], for which the IC50 is over 60000 nM in series [1] (Homo sapiens, HEK293, 18 h) and 2150 nM in series [3] (Chikungunya virus, HEK293).
On to `C=CC/C=C\C/C=C\CCCCCCCc1cccc(O)c1C(=O)O` [(15:3)-Anacardic acid], for which the values for the IC50 in series [1] (setting [10]) and in series [3] were 2680 nM and 580 nM, respectively.
For `CCCCn1c2cc(OC)c(Cl)cc2c2ccnc(C)c21` [AnnH14, 9-butyl-6-chloro-7-methoxy-1-methyl-9H-pyrido[3,4-b]indole], the half-inhibitory concentration (IC50) in series [1] (Homo sapiens, HEK293, 18 h) is 10600 nM; in series [6], 5020 nM; in [3] (Chikungunya virus, HEK293) it was 1550 nM.
With `O=c1cc(-c2ccccc2)oc2ccc(O)cc12` [6-Hydroxyflavone], the IC50 in series [1] (Homo sapiens, HEK293, 18 h) was over 60000 nM; in series [3] (Chikungunya virus, HEK293), 2600 nM.
Regarding `C/C=C/C/C=C/CCC(=O)[C@H]1O[C@H]1C(N)=O` [Cerulenin], in series [1] (Homo sapiens, HEK293, 18 h), the IC50 came to 7570 nM. In addition, in [4], the “effect on cell viability” value was “no deleterious effect on cell viability”. For the same compound, the cell toxicity entry in series [8] is “no detectable cell toxicity”. Further, in series [9], the “vRNA synthesis (cell-associated vRNA)” value is listed as “significantly reduced vRNA synthesis”; the “viral release in the supernatants (supernatant-associated vRNA)” value was “strongly inhibited viral release”; the “vRNA replication, delayed treatment” value is reported as “only a minor impact on vRNA replication”; the “viral release, delayed treatment” value is “major defect in viral release”. Moreover, in series [3] (Chikungunya virus, HEK293), the concentration for half-maximal inhibition (IC50) is 3000 nM. Besides, in series [5], the “genomic and subgenomic vRNA synthesis” value is “significant and dose-dependent reduction”.

(Values after PMC4865845, “A human genome-wide loss-of-function screen identifies effective chikungunya antiviral drugs” (Nature Communications, 2016).)
